Data: PubChem BioAssay AID248 (DTP/NCI, 2004)
“And” between values parts separate entries of the source, which are not always exact repeats. Equal entries are not always repeated. Toxic doses and inconclusive results are not listed. Rule as the data show it: active = T/C of 150% or more; inactive = T/C below 125%.

System: L1210 leukemia ip in BDF1 mice, survival T/C
Experiment: NCI In Vivo Anticancer Drug Screen. Data for tumor model L1210 Leukemia (intraperitoneal) in B6D2F1 (BDF1) mice
Settings: endpoint: mean survival time, higher = longer survival
How it was run: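 Transplantable tumor model; survival measured in treated vs vehicle control mice. Value = treated/control.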

[1] = dose: 100.0 mg/kg/injection, schedule: Q01DX009 (ip), vehicle: saline with Tween-80
[2] = dose: 100.0 mg/kg/injection, schedule: Q04DX003 (ip), vehicle: saline with Tween-80
[3] = dose: 200.0 mg/kg/injection, schedule: Q04DX003 (ip), vehicle: saline with Tween-80
[4] = dose: 400.0 mg/kg/injection, schedule: Q04DX003 (ip), vehicle: saline with Tween-80
[5] = dose: 200.0 mg/kg/injection, schedule: Q01DX009 (ip), vehicle: saline with Tween-80
[6] = dose: 400.0 mg/kg/injection, schedule: Q01DX009 (ip), vehicle: saline with Tween-80
[7] = dose: 100.0 mg/kg/injection, schedule: Q04DX003 (ip), vehicle: Klucel (hydroxypropylcellulose) (HPC)
[8] = dose: 200.0 mg/kg/injection, schedule: Q04DX003 (ip), vehicle: Klucel (hydroxypropylcellulose) (HPC)
[9] = dose: 400.0 mg/kg/injection, schedule: Q04DX003 (ip), vehicle: Klucel (hydroxypropylcellulose) (HPC)
[10] = dose: 100.0 mg/kg/injection, schedule: Q04DX002 (ip), vehicle: Klucel (hydroxypropylcellulose) (HPC)
[11] = dose: 200.0 mg/kg/injection, schedule: Q04DX002 (ip), vehicle: Klucel (hydroxypropylcellulose) (HPC)
[12] = dose: 400.0 mg/kg/injection, schedule: Q04DX002 (ip), vehicle: Klucel (hydroxypropylcellulose) (HPC)
[13] = dose: 100.0 mg/kg/injection, schedule: Q01DX009 (ip), vehicle: Klucel (hydroxypropylcellulose) (HPC)
[14] = dose: 200.0 mg/kg/injection, schedule: Q01DX009 (ip), vehicle: Klucel (hydroxypropylcellulose) (HPC)
[15] = dose: 100.0 mg/kg/injection, schedule: Q01DX001 (ip), vehicle: saline
[16] = dose: 200.0 mg/kg/injection, schedule: Q01DX001 (ip), vehicle: saline

Measured: T/C

NC(N)=N/N=C/c1ccccc1 (tested in a mixture with another compound)
inactive: dose: 12.5 mg/kg/injection, schedule: Q04DX003 (ip), vehicle: acetone 93 % of control | dose: 25.0 mg/kg/injection, schedule: Q04DX003 (ip), vehicle: acetone 96 % of control | dose: 50.0 mg/kg/injection, schedule: Q04DX003 (ip), vehicle: acetone 91 % of control

CC(O)(c1ccccc1)C1C(c2ccccc2)N1Cc1ccccc1 (stereo not given)
inactive: dose: 100.0 mg/kg/injection, schedule: Q04DX003 (ip), vehicle: saline sonified 96 % of control | dose: 200.0 mg/kg/injection, schedule: Q04DX003 (ip), vehicle: saline sonified 94 % of control | dose: 400.0 mg/kg/injection, schedule: Q04DX003 (ip), vehicle: saline sonified 91 % of control

ClC1(Cl)C2/C=C/CCCCC21 (stereo not given)
inactive: dose: 100.0 mg/kg/injection, schedule: Q01DX005 (ip), vehicle: saline with Tween-80 105 % of control | dose: 100.0 mg/kg/injection, schedule: Q04DX002 (ip), vehicle: saline with Tween-80 92 % of control | dose: 200.0 mg/kg/injection, schedule: Q01DX005 (ip), vehicle: saline with Tween-80 92 % of control | dose: 200.0 mg/kg/injection, schedule: Q04DX002 (ip), vehicle: saline with Tween-80 113 % of control | dose: 400.0 mg/kg/injection, schedule: Q01DX005 (ip), vehicle: saline with Tween-80 92 % of control | dose: 400.0 mg/kg/injection, schedule: Q04DX002 (ip), vehicle: saline with Tween-80 95 % of control

COc1ccc2[nH]c(-c3ccccc3)c(-c3ccccc3)c2c1
inactive: [1] 90 % of control | [2] 89 % of control | [3] 87 % of control | [4] 92 % of control

C=C1OC(=O)OC1(C)CC(OC)OC (stereo not given)
inactive: [1] 101 % of control | [2] 94 % of control | [5] 95 % of control | [3] 92 % of control | [6] 98 % of control | [4] 92 % of control

COc1cc(N(CCCl)CCCl)ccc1C=Nc1ccc2c(c1)nc(C)n2C
inactive: dose: 68.8 mg/kg/injection, schedule: Q04DX002 (ip), vehicle: Klucel (hydroxypropylcellulose) (HPC) 104 % of control | dose: 137.5 mg/kg/injection, schedule: Q04DX002 (ip), vehicle: Klucel (hydroxypropylcellulose) (HPC) 101 % of control | dose: 275.0 mg/kg/injection, schedule: Q04DX002 (ip), vehicle: Klucel (hydroxypropylcellulose) (HPC) 117 % of control

CC/C(C)=N\NC(=O)c1cccnc1
inactive: dose: 100.0 mg/kg/injection, schedule: Q01DX009 (ip), vehicle: saline 110 % of control | dose: 200.0 mg/kg/injection, schedule: Q01DX009 (ip), vehicle: saline 110 % of control

O=C(/C=C/c1c(Cl)cccc1Cl)c1ccc([N+](=O)[O-])cc1
inactive: [7] 103 % of control | [8] 94 % of control | [9] 94 % of control

O=C(/C=C/c1ccccc1)c1ccccc1
inactive: dose: 100.0 mg/kg/injection, schedule: Q01DX001 (ip), vehicle: Klucel (hydroxypropylcellulose) (HPC) 98 % of control | [10] 105 % of control | [7] 100 % of control | dose: 200.0 mg/kg/injection, schedule: Q01DX001 (ip), vehicle: Klucel (hydroxypropylcellulose) (HPC) 99 % of control | [11] 105 % of control | [8] 104 % of control | dose: 400.0 mg/kg/injection, schedule: Q01DX001 (ip), vehicle: Klucel (hydroxypropylcellulose) (HPC) 94 % of control | [12] 94 % of control | [9] 98 % of control

O=S(=O)(Nc1cccc(C(F)(F)F)c1)c1cc(Cl)c(Cl)cc1Cl
inactive: dose: 50.0 mg/kg/injection, schedule: Q01DX009 (ip), vehicle: carboxymethylcellulose (CMC) 86 % of control | dose: 75.0 mg/kg/injection, schedule: Q04DX003 (ip), vehicle: carboxymethylcellulose (CMC) 94 % of control | dose: 100.0 mg/kg/injection, schedule: Q04DX002 (ip), vehicle: carboxymethylcellulose (CMC) 100 % of control and 102 % of control | dose: 150.0 mg/kg/injection, schedule: Q04DX003 (ip), vehicle: carboxymethylcellulose (CMC) 94 % of control | dose: 200.0 mg/kg/injection, schedule: Q04DX002 (ip), vehicle: carboxymethylcellulose (CMC) 97 % of control | dose: 300.0 mg/kg/injection, schedule: Q04DX003 (ip), vehicle: carboxymethylcellulose (CMC) 100 % of control | dose: 400.0 mg/kg/injection, schedule: Q04DX002 (ip), vehicle: carboxymethylcellulose (CMC) 101 % of control and 91 % of control

CCOC(=O)C(=O)Cc1sccc1[N+](=O)[O-]
inactive: [13] 93 % of control | [7] 94 % of control | [14] 94 % of control | [8] 92 % of control | dose: 400.0 mg/kg/injection, schedule: Q01DX009 (ip), vehicle: Klucel (hydroxypropylcellulose) (HPC) 100 % of control | [9] 100 % of control

COC(=O)C1C2C(C)=C3CCCCC3(C1C(=O)OC)C(C(=O)OC)C2C(=O)OC (stereo not given)
inactive: [15] 113 % of control | [16] 95 % of control | dose: 400.0 mg/kg/injection, schedule: Q01DX001 (ip), vehicle: saline 86 % of control

CCOc1c(C(=O)O)cnc2ccccc12
inactive: dose: 75.0 mg/kg/injection, schedule: Q01DX001 (ip), vehicle: saline 100 % of control

O=C(Cc1ccc(-c2ccccc2)cc1)c1ccccc1
inactive: dose: 100.0 mg/kg/injection, schedule: Q01DX001 (ip), vehicle: saline with Tween-80 94 % of control | dose: 200.0 mg/kg/injection, schedule: Q01DX001 (ip), vehicle: saline with Tween-80 93 % of control | dose: 400.0 mg/kg/injection, schedule: Q01DX001 (ip), vehicle: saline with Tween-80 91 % of control

Clc1ccccc1OB(Oc1ccccc1Cl)Oc1ccccc1Cl
inactive: [15] 101 % of control | [16] 95 % of control

CCOC1CC2c3ccccc3C1c1cccc[n+]12 (stereo not given)
inactive: dose: 12.5 mg/kg/injection, schedule: Q01DX009 (ip), vehicle: saline 100 % of control | dose: 12.5 mg/kg/injection, schedule: Q04DX003 (ip), vehicle: saline 100 % of control and 94 % of control | dose: 25.0 mg/kg/injection, schedule: Q01DX009 (ip), vehicle: saline 98 % of control | dose: 25.0 mg/kg/injection, schedule: Q04DX003 (ip), vehicle: saline 89 % of control and 101 % of control | dose: 50.0 mg/kg/injection, schedule: Q01DX009 (ip), vehicle: saline 94 % of control and 96 % of control | dose: 50.0 mg/kg/injection, schedule: Q04DX003 (ip), vehicle: saline 97 % of control and 101 % of control | dose: 75.0 mg/kg/injection, schedule: Q01DX009 (ip), vehicle: saline 88 % of control | dose: 100.0 mg/kg/injection, schedule: Q04DX003 (ip), vehicle: saline 98 % of control | dose: 200.0 mg/kg/injection, schedule: Q04DX003 (ip), vehicle: saline 107 % of control | dose: 400.0 mg/kg/injection, schedule: Q04DX003 (ip), vehicle: saline 86 % of control

CC(C)=CCc1ccc(O)cc1
inactive: dose: 100.0 mg/kg/injection, schedule: Q01DX009 (ip), vehicle: saline + alcohol 95 % of control | [7] 96 % of control | [8] 100 % of control | [9] 95 % of control

CCOc1ccc(/C=C2\N=C(c3cc(OC)c(OC)c(OC)c3)OC2=O)cc1
inactive: [1] 102 % of control | [10] 96 % of control | [5] 123 % of control | [11] 86 % of control | [6] 108 % of control | [12] 96 % of control

CCOC(=O)C1C(=O)C(C(C2C(=O)C(C(=O)OCC)C(c3ccc(O)cc3)C(C(=O)OCC)C2=O)C(O)C(O)C(O)CO)C(=O)C(C(=O)OCC)C1c1ccc(O)cc1 (stereo not given) (tested in a mixture with another compound)
inactive: dose: 50.0 mg/kg/injection, schedule: Q01DX009 (ip), vehicle: Klucel (hydroxypropylcellulose) (HPC) 101 % of control and 96 % of control | [13] 93 % of control and 96 % of control | [14] 104 % of control and 107 % of control

CCC#CC(=O)CC
inactive: dose: 7.5 mg/kg/injection, schedule: Q04DX003 (ip), vehicle: saline 94 % of control | dose: 15.0 mg/kg/injection, schedule: Q04DX003 (ip), vehicle: saline 94 % of control | dose: 30.0 mg/kg/injection, schedule: Q04DX003 (ip), vehicle: saline 95 % of control

O=CNc1ccc2c(c1)Cc1cc(Br)ccc1-2
inactive: dose: 50.0 mg/kg/injection, schedule: Q04DX003 (ip), vehicle: Klucel (hydroxypropylcellulose) (HPC) 97 % of control | [7] 101 % of control | [8] 97 % of control
